Measurements as given in patent publication US9914730B2, “Azaquinazoline inhibitors of Atypical protein Kinase C” (Ignyta, Inc., priority 2012, dated 2018).
Where a name gives a salt, the structure may show the parent alone.

These molecules were tested against T1, full-length human PKCι (Homo sapiens, UniProt P41743) (assay: PKCι IC50 IMAP assay, full-length PKCι at 150 μM ATP). Settings: read-out: IC50 in IMAP assay against full length PKCi at 150 μM ATP.
T1 construct: Recombinant, full-length human PKCι expressed in Sf21 insect cells is also commercially available; purchased; host or cells: Sf21 insect cells
T1 sequence (P41743 1-596): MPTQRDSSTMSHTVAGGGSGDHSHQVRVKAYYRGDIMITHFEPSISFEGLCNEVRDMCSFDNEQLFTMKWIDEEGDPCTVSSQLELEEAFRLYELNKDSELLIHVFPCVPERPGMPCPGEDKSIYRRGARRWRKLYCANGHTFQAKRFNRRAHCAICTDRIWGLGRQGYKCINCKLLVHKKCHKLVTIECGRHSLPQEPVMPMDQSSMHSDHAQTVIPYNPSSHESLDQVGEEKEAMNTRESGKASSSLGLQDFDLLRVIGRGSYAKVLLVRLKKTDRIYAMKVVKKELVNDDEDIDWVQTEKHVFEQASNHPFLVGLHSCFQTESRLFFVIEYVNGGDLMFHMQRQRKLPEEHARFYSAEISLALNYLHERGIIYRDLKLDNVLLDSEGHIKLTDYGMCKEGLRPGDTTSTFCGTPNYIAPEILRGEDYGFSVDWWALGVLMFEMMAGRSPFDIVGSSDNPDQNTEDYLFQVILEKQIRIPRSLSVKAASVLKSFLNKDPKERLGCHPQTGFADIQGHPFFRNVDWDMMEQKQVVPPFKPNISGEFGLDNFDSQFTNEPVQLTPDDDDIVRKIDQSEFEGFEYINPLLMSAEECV
Assay type: biochemical
Summary of the method: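 IMAP fluorescence polarisation (ex 485/em 530 nm) read-out; % inhibition set from no-compound (0%) and no-enzyme (100%) controls, IC50 from dose-response curve fit. Sf21-expressed full-length enzyme ~15 pM, 100 nM FAM peptide, ATP 150 μM (5× KM^APP), 60 min at RT.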

Row | Structure (SMILES) | IC50
1 | OC1CCN(c2nc(-c3ccnc4[nH]c5ccccc5c34)nc3cncc(C4CC4)c23)CC1 [Example 1254, 1-[5-cyclopropyl-2-(9H-pyrido[2,3-b]indol-4-yl)-pyrido[3,4-d]pyrimidin-4-yl]-piperidin-4-ol trifluoroacetic acid salt] | 100 to 1000 nM
2 | CC1(C)CN(c2nc(-c3ccnc4[nH]c5ccccc5c34)nc3cncc(C4CC4)c23)CCN1 [Example 1255, 4-[5-Cyclopropyl-4-(3,3-dimethyl-piperazin-1-yl)-pyrido[3,4-d]pyrimidin-2-yl]-9H-pyrido[2,3-b]indole trifluoroacetic acid salt] | < 100 nM
3 | C[C@H]1CN(c2nc(-c3ccnc4[nH]c(C(C)(C)C)cc34)nc3cncc(C4CC4)c23)CCN1 [Example 2001, 2-(2-tert-Butyl-1H-pyrrolo[2,3-b]pyridin-4-yl)-5-cyclopropyl-4-((S)-3-methyl-piperazin-1-yl)-pyrido[3,4-d]pyrimidine] | < 100 nM
4 | CC1(C)CN(c2nc(-c3ccnc4[nH]c(C(C)(C)C)cc34)nc3cncc(C4CC4)c23)CCN1 [Example 2002, 2-(2-tert-Butyl-1H-pyrrolo[2,3-b]pyridin-4-yl)-5-cyclopropyl-4-(3,3-dimethyl-piperazin-1-yl)-pyrido[3,4-d]pyrimidine] | < 100 nM
5 | CN(C)C(=O)c1ccc(Nc2cc(-c3nc(N4CCNCC4)c4c(C5CC5)cncc4n3)ccn2)cc1 [Example 2003, 4-[4-(5-Cyclopropyl-4-piperazin-1-yl-pyrido[3,4-d]pyrimidin-2-yl)-pyridin-2-ylamino]-N,N-dimethyl-benzamide] | < 100 nM
6 | C[C@H]1CN(c2nc(-c3ccnc(Nc4nc(F)cc(F)c4F)c3)nc3cncc(C4CC4)c23)CCN1 [Example 2004, {4-[5-Cyclopropyl-4-((S)-3-methyl-piperazin-1-yl)-pyrido[3,4-d]pyrimidin-2-yl]-pyridin-2-yl}-(3,4,6-trifluoro-pyridin-2-yl)-amine] | < 100 nM
7 | C[C@@H](Nc1cc(-c2nc(N3CCNC(C)(C)C3)c3c(C4CC4)cncc3n2)ccn1)C1CC1 [Example 2006, {4-[5-Cyclopropyl-4-(3,3-dimethyl-piperazin-1-yl)-pyrido[3,4-d]pyrimidin-2-yl]-pyridin-2-yl}-((R)-1-cyclopropyl-ethyl)-amine] | < 100 nM
8 | C[C@@H](Nc1cc(-c2nc(N3CCNC(C)(C)C3)c3c(C4CC4)cncc3n2)ccn1)c1ccccc1 [Example 2007, {4-[5-Cyclopropyl-4-(3,3-dimethyl-piperazin-1-yl)-pyrido[3,4-d]pyrimidin-2-yl]-pyridin-2-yl}-((R)-1-phenyl-ethyl)-amine] | < 100 nM
9 | C[C@H]1CN(c2nc(-c3ccnc4[nH]c(C(C)(C)C)cc34)nc3cncc(C4CCC4)c23)CCN1 [Example 2008, 2-(2-tert-Butyl-1H-pyrrolo[2,3-b]pyridin-4-yl)-5-cyclobutyl-4-((S)-3-methyl-piperazin-1-yl)-pyrido[3,4-d]pyrimidine] | < 100 nM
10 | Fc1ccccc1C1(c2cc3c(-c4nc(N5CCNCC5)c5c(C6CC6)cncc5n4)ccnc3[nH]2)CC1 [Example 2009, 5-Cyclopropyl-2-{2-[1-(2-fluoro-phenyl)-cyclopropyl]-1H-pyrrolo[2,3-b]pyridin-4-yl}-4-piperazin-1-yl-pyrido[3,4-d]pyrimidine] | < 100 nM
11 | CC(C)(C)c1cc2c(-c3nc(N4CCNCC4)c4c(C5CCC5)cncc4n3)ccnc2[nH]1 [Example 2010, 2-(2-tert-Butyl-1H-pyrrolo[2,3-b]pyridin-4-yl)-5-cyclobutyl-4-piperazin-1-yl-pyrido[3,4-d]pyrimidine] | < 100 nM
12 | Fc1cc(F)nc(Nc2cc(-c3nc(N4CCNCC4)c4c(C5CCC5)cncc4n3)ccn2)c1 [Example 2011, [4-(5-Cyclobutyl-4-piperazin-1-yl-pyrido[3,4-d]pyrimidin-2-yl)-pyridin-2-yl]-(4,6-difluoro-pyridin-2-yl)-amine] | < 100 nM
13 | c1cc(-c2nc(N3CCNCC3)c3c(C4CC4)cncc3n2)cc(Nc2nc3ccc(C4CC4)cn3n2)n1 [Example 2012, [4-(5-Cyclopropyl-4-piperazin-1-yl-pyrido[3,4-d]pyrimidin-2-yl)-pyridin-2-yl]-(6-cyclopropyl-[1,2,4]triazolo[1,5-a]pyridin-2-yl)-amine] | < 100 nM
14 | Fc1cc(C2CCC2)cnc1Nc1cc(-c2nc(N3CCNCC3)c3c(C4CC4)cncc3n2)ccn1 [Example 2013, (5-Cyclobutyl-3-fluoro-pyridin-2-yl)-[4-(5-cyclopropyl-4-piperazin-1-yl-pyrido[3,4-d]pyrimidin-2-yl)-pyridin-2-yl]-amine] | < 100 nM
15 | CN(c1nc(-c2ccnc(Nc3nc(F)c(F)cc3F)c2)nc2cncc(C3CC3)c12)C1CCNCC1 [Example 2014, {5-Cyclopropyl-2-[2-(3,5,6-trifluoro-pyridin-2-ylamino)-pyridin-4-yl]-pyrido[3,4-d]pyrimidin-4-yl}-methyl-piperidin-4-yl-amine] | < 100 nM
16 | CCn1cc(Cl)c(Nc2cc(-c3nc(N4CCNCC4)c4c(C5CC5)cncc4n3)ccn2)n1 [Example 2015, (4-Chloro-1-ethyl-1H-pyrazol-3-yl)-[4-(5-cyclopropyl-4-piperazin-1-yl-pyrido[3,4-d]pyrimidin-2-yl)-pyridin-2-yl]-amine] | < 100 nM
17 | FC(F)(F)Cn1ccc(Nc2cc(-c3nc(N4CCNCC4)c4c(C5CC5)cncc4n3)ccn2)n1 [Example 2016, [4-(5-Cyclopropyl-4-piperazin-1-yl-pyrido[3,4-d]pyrimidin-2-yl)-pyridin-2-yl]-[1-(2,2,2-trifluoro-ethyl)-1H-pyrazol-3-yl]-amine] | < 100 nM
18 | CC1(C)CN(c2nc(-c3ccnc(Nc4ccn(CC(F)(F)F)n4)c3)nc3cncc(C4CC4)c23)CCN1 [Example 2017, {4-[5-Cyclopropyl-4-(3,3-dimethyl-piperazin-1-yl)-pyrido[3,4-d]pyrimidin-2-yl]-pyridin-2-yl}-[1-(2,2,2-trifluoro-ethyl)-1H-pyrazol-3-yl]-amine] | < 100 nM
19 | CC(C)n1ccc(Nc2cc(-c3nc(N4CCNC(C)(C)C4)c4c(C5CC5)cncc4n3)ccn2)n1 [Example 2018, {4-[5-Cyclopropyl-4-(3,3-dimethyl-piperazin-1-yl)-pyrido[3,4-d]pyrimidin-2-yl]-pyridin-2-yl}-(1-isopropyl-1H-pyrazol-3-yl)-amine] | < 100 nM
20 | CN(c1nc(-c2ccnc(Nc3nc(F)cc(F)c3F)c2)nc2cncc(C3CC3)c12)C1CCNCC1 [Example 2019, {5-Cyclopropyl-2-[2-(3,4,6-trifluoro-pyridin-2-ylamino)-pyridin-4-yl]-pyrido[3,4-d]pyrimidin-4-yl}-methyl-piperidin-4-yl-amine] | < 100 nM
21 | Fc1cc(F)c(Nc2cc(-c3nc(NC4CCNC4)c4c(C5CC5)cncc4n3)ccn2)nc1F (stereo not shown) [Example 2020, {5-Cyclopropyl-2-[2-(3,5,6-trifluoro-pyridin-2-ylamino)-pyridin-4-yl]-pyrido[3,4-d]pyrimidin-4-yl}-pyrrolidin-3-yl-amine] | < 100 nM
22 | Fc1cc(F)c(F)c(Nc2cc(-c3nc(NC4CCNC4)c4c(C5CC5)cncc4n3)ccn2)n1 (stereo not shown) [Example 2021, {5-Cyclopropyl-2-[2-(3,4,6-trifluoro-pyridin-2-ylamino)-pyridin-4-yl]-pyrido[3,4-d]pyrimidin-4-yl}-pyrrolidin-3-yl-amine] | < 100 nM
23 | c1ccn2nc(Nc3cc(-c4nc(N5CCNCC5)c5c(C6CCC6)cncc5n4)ccn3)nc2c1 [Example 2022, [4-(5-Cyclobutyl-4-piperazin-1-yl-pyrido[3,4-d]pyrimidin-2-yl)-pyridin-2-yl]-[1,2,4]triazolo[1,5-a]pyridin-2-yl-amine] | < 100 nM
24 | c1cc(Nc2cc(-c3nc(N4CCNCC4)c4c(C5CC5)cncc4n3)ccn2)cc(N2CCOCC2)c1 [Example 2023, [4-(5-Cyclopropyl-4-piperazin-1-yl-pyrido[3,4-d]pyrimidin-2-yl)-pyridin-2-yl]-(3-morpholin-4-yl-phenyl)-amine] | < 100 nM
25 | FC(F)(F)c1cc2c(-c3nc(N4CCNCC4)c4c(C5CCC5)cncc4n3)ccnc2[nH]1 [Example 2024, 5-Cyclobutyl-4-piperazin-1-yl-2-(2-trifluoromethyl-1H-pyrrolo[2,3-b]pyridin-4-yl)-pyrido[3,4-d]pyrimidine] | < 100 nM
26 | CN(c1nc(-c2ccnc(Nc3c(F)cccc3F)c2)nc2cncc(C3CC3)c12)C1CCNC1 (stereo not shown) [Example 2025, {5-Cyclopropyl-2-[2-(2,6-difluoro-phenylamino)-pyridin-4-yl]-pyrido[3,4-d]pyrimidin-4-yl}-methyl-pyrrolidin-3-yl-amine] | < 100 nM
27 | Fc1cccc(F)c1Nc1cc(-c2nc(NC3CNC3)c3c(C4CC4)cncc3n2)ccn1 [Example 2026, Azetidin-3-yl-{5-cyclopropyl-2-[2-(2,6-difluoro-phenylamino)-pyridin-4-yl]-pyrido[3,4-d]pyrimidin-4-yl}-amine] | < 100 nM
28 | Fc1ccc(F)c2c1[nH]c1nccc(-c3nc(N4CCNCC4)c4c(C5CC5)cncc4n3)c12 [Example 2027, 4-(5-Cyclopropyl-4-piperazin-1-yl-pyrido[3,4-d]pyrimidin-2-yl)-5,8-difluoro-9H-pyrido[2,3-b]indole] | < 100 nM
